Test results as given in ChEMBL document CHEMBL2406986, “Correlation of hydrogen-bonding propensity and anticancer profile of tetrazole-tethered combretastatin analogues” (Bioorg Med Chem Lett, 2013).

Experiments:
[1] = Inhibition of bovine brain tubulin assembly preincubated for 15 mins followed by GTP addition measured for 20 mins by spectrophotometric analysis; design: species or system Bos taurus
[2] = test system: MCF7; experiment: Cytotoxicity against human MCF7 cells assessed as growth inhibition after 48 hrs by MTT assay; format: functional, cell-based; settings: MCF7, 48 h
[3] = Cytotoxicity against human H1299 cells assessed as growth inhibition after 48 hrs by MTT assay; format: functional, cell-based; settings: NCI-H1299, 48 h
[4] = test system: A549; experiment: Cytotoxicity against human A549 cells assessed as growth inhibition after 48 hrs by MTT assay; format: functional, cell-based; settings: A549, 48 h
[5] = test system: HeLa; experiment: Cytotoxicity against human HeLa cells assessed as growth inhibition after 48 hrs by MTT assay; format: functional, cell-based
[6] = organism: Bos taurus; experiment: Displacement of [3H]colchicine from bovine brain tubulin at 5 uM after 10 mins relative to control

Question: For `COc1ccc(-c2nnnn2-c2cc(OC)c(OC)c(OC)c2O)c(O)c1`, which IC50 [1] is on record?
Answer: The IC50 was over 20 µM.

Question: And the IC50 [2]?
Answer: Its IC50 is 46 µM.

Question: And the IC50 [3]?
Answer: The IC50 was 49 µM.

Question: What about the IC50 [4] of the same compound?
Answer: The IC50 was 50 µM.

Question: And the IC50 [5]?
Answer: The IC50 was 45 µM.

Question: For `COc1ccc(-c2nnnn2-c2cc(OC)c(OC)c(OC)c2)c(O)c1`, which inhibition [6] is on record?
Answer: Its inhibition is 52%.

Question: And the IC50 [1]?
Answer: The IC50 was 2.7 µM.

Question: What about the IC50 [2] of the same compound?
Answer: Its IC50 is 8.2 µM.

Question: What about the IC50 [3] of the same compound?
Answer: The IC50 was 7.9 µM.

Question: What about the IC50 [4] of the same compound?
Answer: Its IC50 is 6.4 µM.

Question: What about the IC50 [5] of the same compound?
Answer: The IC50 was 2.4 µM.

Question: What does the source list for `COc1ccc(-c2nnnn2-c2cc(OC)c(OC)c(OC)c2O)cc1`?
Answer: IC50 [1]: > 20 µM; IC50 [2]: 72 µM; IC50 [3]: 40 µM; IC50 [4]: > 100 µM; IC50 [5]: 92 µM

Question: With `COc1ccc(-c2nnnn2-c2cc(OC)c(OC)c(OC)c2)c(O)c1N` as the compound, how does the inhibition [6] read?
Answer: Its inhibition is 69%.

Question: And the IC50 [1]?
Answer: Its IC50 is 2.2 µM.

Question: What about the IC50 [2] of the same compound?
Answer: Its IC50 is 2.9 µM.

Question: And the IC50 [3]?
Answer: The IC50 was 4 µM.

Question: And the IC50 [4]?
Answer: The IC50 was 0.52 µM.

Question: And the IC50 [5]?
Answer: The IC50 was 0.9 µM.

Question: With `COc1ccc(-c2nnnn2-c2cc(OC)c(OC)c(OC)c2)c(O)c1O` as the compound, how does the inhibition [6] read?
Answer: Its inhibition is 62%.

Question: What about the IC50 [1] of the same compound?
Answer: Its IC50 is 2.5 µM.

Question: What about the IC50 [2] of the same compound?
Answer: Its IC50 is 6.6 µM.

Question: What about the IC50 [3] of the same compound?
Answer: Its IC50 is 8.8 µM.

Question: And the IC50 [4]?
Answer: Its IC50 is 6.7 µM.

Question: What about the IC50 [5] of the same compound?
Answer: The IC50 was 0.95 µM.

Question: For `COc1ccc(/C=C\c2cc(OC)c(OC)c(OC)c2)cc1O` [COMBRETASTATIN A4], which IC50 [2] is on record?
Answer: Its IC50 is 0.098 µM.

Question: What about the IC50 [3] of the same compound?
Answer: Its IC50 is 0.0062 µM.

Question: What about the IC50 [4] of the same compound?
Answer: Its IC50 is 0.28 µM.
